Source: EP0411733A2, “11-Beta-aryle-gona-4,9-dien-3-ones” (SCHERING AKTIENGESELLSCHAFT, priority 1989, dated 1991)

Tested on: weibliche gravide Raten
Assay: abortive effect (inhibition of fertility) in pregnant rats, subcutaneous treatment
Type: in vivo
Details: Gesamtdosis 2 mg/Tier/4d, subkutan in Erdnußöl, 5. bis 8. Graviditätstag, Autopsie am 20. Graviditätstag; for Fertilitätshemmung absol.: N = 6
Source text: Zur Kennzeichnung der antigestagenen Wirkung dient die tierexperimentell ermittelt abortive Wirkung der Substanzen. Zu diesem Zweck wurden weibliche gravide Raten (positiver Spermiennachweis = 1 Graviditätstag) im Gewicht zwischen 180 und 200 g am 5. bis 8. Graviditätstag mit der Testverbindung in Erdnußöl suspendiert subkutan behandelt. Nach Autopsie am 20. Graviditätstag wurden die Uterie untersucht. Dabei wurde die Anzahl der graviden Weibchen und die durchschnittliche Zahl der Feten pro gravides Tier festgestellt. Der Hemmeffekt wurde wie folgt berechnet: [formula]

| Compound | Fertilitätshemmung rel. % | Fertilitätshemmung absol. |
| --- | --- | --- |
| CO[C@@]12C[C@@H]1C[C@H]1[C@@H]3CCC4=CC(=O)CCC4=C3[C@@H](c3ccc(C(C)=O)cc3)C[C@@]12C [11β-(4-Acetylphenyl)-17β-methoxy-16α,17α-methylen-estra-4,9-dien-3-on] | 100% | 6 |
| COCC1(OC)CCC2C3CCC4=CC(=O)CCC4=C3C(c3ccc(C(C)=O)cc3)CC21C (stereo not drawn) [11β-(4-Acetylphenyl)-17β-methoxy-17α-methoxymethyl-estra-4,9-dien-3-on] | 100% | 6 |
| CC#CC1(OC)CCC2C3CCC4=CC(=O)CCC4=C3C(c3ccc(C(C)=O)cc3)CC21C (stereo not drawn) [11β-(4-Acetylphenyl)-17β-methoxy-17α-propinyl-13-methyl-gona-4,9-dien-3-on] | 100% | 6 |
| CC#CC1(OC)CCC2C3CCC4=CC(=O)CCC4=C3C(c3ccc(N(C)C)cc3)CC21C (stereo not drawn) [11β-(4-Dimethylaminophenyl)-17β-methoxy-17α-propinyl-13-methyl-gona-4,9-dien-3-on] | 100% | 6 |
| C#C[C@]1(OC)CC[C@H]2[C@@H]3CCC4=CC(=O)CCC4=C3[C@@H](c3ccc(C(C)=O)cc3)C[C@@]21C [17β-Methoxy-17α-ethinyl-11β-acetylphenyl, 11β-(4-Acetylphenyl)-17α-ethinyl-17β-methoxy-13-methyl-gona-4,9-dien-3-on] | 100% | 6 |
| CC#C[C@]1(O)CC[C@H]2[C@@H]3CCC4=CC(=O)CCC4=C3[C@@H](c3ccc(N(C)C)cc3)C[C@@]21C [RU 486, 11β-(4-Dimethylaminophenyl)-17β-hydroxy-17α-(prop-1-inyl)-4,9-estradien-3-on, reference compound] | 80% | – |
